Assay results reported in ChEMBL document CHEMBL1641435, “DR396, an apoptotic DNase γ inhibitor, attenuates high mobility group box 1 release from apoptotic cells” (Bioorg Med Chem, 2011).
Active and inactive are the calls of the source. No cut-off for these calls is given here.

How the values were obtained:
HeLa S3 = test: Inhibition of HMGB1 release in human staurosporine-induced HeLaS3 cells at 100 uM treated 1 hr before staurosporine challenge measured after 24 hrs by Western blotting; format: functional
[1] = target: T1, Deoxyribonuclease gamma (Homo sapiens) (UniProt Q13609); test: (§1) Inhibition of human recombinant DNase gamma expressed in Rosetta DE3 cells assessed as increase in acid soluble DNA after 30 mins; format: cell-based
T1 sequence (whole entry): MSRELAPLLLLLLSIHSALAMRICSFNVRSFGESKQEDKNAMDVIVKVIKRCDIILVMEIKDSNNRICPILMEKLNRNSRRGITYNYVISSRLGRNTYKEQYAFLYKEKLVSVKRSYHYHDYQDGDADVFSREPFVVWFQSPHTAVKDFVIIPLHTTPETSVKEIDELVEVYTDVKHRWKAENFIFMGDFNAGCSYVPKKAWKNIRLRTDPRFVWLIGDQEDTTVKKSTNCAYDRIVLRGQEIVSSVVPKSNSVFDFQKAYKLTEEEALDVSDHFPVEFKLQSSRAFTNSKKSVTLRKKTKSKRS

Deoxyribonuclease gamma [2] = target: T2, Deoxyribonuclease gamma (Homo sapiens, UniProt Q13609); test: as §1; format: cell-based
T2 sequence (Q13609 whole entry): T1 sequence (whole entry)

[3] = target: T1, Deoxyribonuclease gamma (Homo sapiens); details: HeLa S3; 30 uM
Description: Inhibition of DNase gamma-mediated nucleosomal DNA fragmentation expressed in human staurosporine-induced HeLaS3 cells at 30 uM treated 1 hr before staurosporine challenge measured after 24 hrs by Western blotting

Deoxyribonuclease gamma [4] = target: T2, Deoxyribonuclease gamma; test: Inhibition of DNase gamma-mediated HMGB1 release expressed in human staurosporine-induced HeLaS3 cells treated 1 hr before staurosporine challenge measured after 24 hrs by Western blotting

In the case of `O=C(N[C@H](CC1CCCCC1)C(=O)O)OCC1c2ccccc2-c2ccccc21`, the inhibition at 100 µM (HeLa S3) is reported as 20%, the inhibition [1] is reported as “Dose-dependent effect” and the IC50 (Deoxyribonuclease gamma [2]) is reported as 34.5 µM.
With `O=C(O)c1ccc(Nc2nc(Cl)nc(Cl)n2)cc1-c1c2ccc(=O)cc-2oc2cc(O)ccc12` the inhibition (HeLa S3) was “Active”, the inhibition [1] was “Dose-dependent effect” and the IC50 (Deoxyribonuclease gamma [2]) was 3.2 µM. For the same molecule, the inhibition [3] was 50% and the IC50 (Deoxyribonuclease gamma [4]) was 30 µM.
In the case of `O=S(=O)(O)c1cc(O)c2c(O)c(/N=N/c3cccc4ccccc34)c(S(=O)(=O)O)cc2c1` [PONTACYL VIOLET 6R], the inhibition at 100 µM (HeLa S3) is reported as 50%, the inhibition [1] is reported as “Dose-dependent effect” and the IC50 (Deoxyribonuclease gamma [2]) is reported as 16.1 µM.
